According to US20200352950A1, “Novel method of treating dystonia” (KOREA ADVANCED INSTITUTE OF SCIENCE AND TECHNOLOGY, priority 2017, published 2020):
Entries after “also recorded” stand apart in the source; their conditions may differ.

How the values were obtained:
[1] = tested on: CACNA1Atot/tot mice (tottering mice); assay: EMG cross correlation between tibialis anterior and gastrocnemius muscles of tottering mice; format: in vivo; conditions: FIG. 1G; stressed environment; compared to control group
Source text: Electrodes (A-M system, USA) were surgically inserted into the gastrocnemius (GS) and tibialis anterior (TA) muscle for EMG recording, respectively. The electrodes were made using multiple strands of stainless-steel wires attached to each other and coated with Teflon. After shaving the hair of the right hind leg and behind the neck, a small incision was formed in the skin of the dorsal neck area. Four sets of recording electrodes were connected from the neck incision to the muscles under the skin. The EMG wires were wired under the skin and connected to a connector fixed to the skull. The low impedance of the exposed end of the wires allows the capture of electrical signals that have passed through relatively long distances (Pearson et al., J. Neurosci. Methods, 148 (1): 36-42, 2005). The EMG signals from the electrodes were sampled at 10 kHz and digitized with MiniDigi 1A (Axon Instrument, USA). Raw traces were analyzed using Clampfit 9.2 (Axon Instrument, USA). The cross correlation was calculated by using the standard of NeuroExplorer (Ver. 4, Nex Technologies, USA). […] The cross correlation indicates the degree of EMG overlap for a certain period in two muscles (TA and GS), and is a measure for judging whether the dystonia symptoms occur simultaneously in two muscles. […] That is, the greater the cross correlation value (Cross Corr.), which is the Y-axis value when the signal between each other is 0 ms (when contracted at the same time), the more severe the dystonia symptoms that the two muscles contract at the same time. The unit of the Y axis, AU, is a relative cross correlation value when the control is set to 1 which is an arbitrary unit.

[2] = tested on: CACNA1Atot/tot mice (tottering mice); assay: Stress-induced dystonia in tottering mice in open field box (attack event number, dystonia score); format: in vivo; conditions: for dystonia symptoms, dose-dependent effect: FIG. 3A; for degree of relaxation of dystonia (number of dystonia events, dystonia score): FIGS. 3B, 3C, i.p., MDL100907 1 or 2 mg/kg, pimavanserin 1.5 mg/kg, ritanserin 2 mg/kg, glemanserin 2 mg/kg, nelotanserin 1 mg/kg, compared to the control group
[3] = tested on: calcium ion concentration in the cerebellum; assay: Real-time GCaMP6 fluorescence measurement of calcium ion concentration in the cerebellum of tottering mice; format: in vivo; conditions: FIG. 4E; stress environment
Experimental: In order to analyze the correlation between the degree of dystonia symptoms and the concentration of calcium ions in neurons, optogenetic model animals were prepared. Particularly, for a photometric system with a polarization-maintaining single-mode optical fiber, AAV2/9-CAG-FLEX-GCaMP6m (zadmehr et al., Cell, 164: 617-631, 2016) and AAV2/9-CMV-Cre (Gompf et al., Front. Behav. Neurosci. 9: 152, 2015) viral vectors were injected unilaterally into 0.25 μl each of the fastigial nucleus of the CACNA1A^tot/tot mouse through stereotaxic surgery. The virus injection was carried out 4 weeks before the experiment. […] For the fluorescence measurement, a TCSPC-based light measurement system (Becker & Hickel, Germany) was used.
The change in calcium signaling in the cerebellum is possible by transduction of a gene encoding the calcium sensor protein GCaMP6 into the cerebellum of the dystonia model mouse, and then measuring the intensity of fluorescence of the GCaMP6 protein bound to calcium ions. […] The present inventors performed real-time fluorescence analysis to analyze the correlation between dystonia symptoms and calcium ion concentration in nerve tissues in the topical transduction tottering mice prepared in Example 2. […] After the pulse laser irradiation, 509 nm wavelength fluorescence was measured using a TCSPC-based optical measurement system (Becker & Hickl, Germany). […]

[4] = biological target: 5-HT2A receptor (Homo sapiens, UniProt P28223); conditions: cited from earlier work
Chain of 5-HT2A receptor (P28223 whole entry): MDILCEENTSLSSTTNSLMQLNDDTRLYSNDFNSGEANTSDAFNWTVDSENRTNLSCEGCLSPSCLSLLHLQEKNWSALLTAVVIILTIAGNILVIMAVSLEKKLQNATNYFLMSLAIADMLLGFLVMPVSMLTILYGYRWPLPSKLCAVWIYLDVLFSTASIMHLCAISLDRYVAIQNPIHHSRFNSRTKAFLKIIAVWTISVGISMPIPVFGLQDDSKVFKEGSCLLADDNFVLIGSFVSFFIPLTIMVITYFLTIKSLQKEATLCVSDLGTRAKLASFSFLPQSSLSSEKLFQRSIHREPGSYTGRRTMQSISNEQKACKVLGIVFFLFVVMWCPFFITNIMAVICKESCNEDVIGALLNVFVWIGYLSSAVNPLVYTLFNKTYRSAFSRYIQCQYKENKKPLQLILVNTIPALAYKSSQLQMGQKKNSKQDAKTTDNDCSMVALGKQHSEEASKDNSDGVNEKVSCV

[5] = tested on: CACNA1Atot/tot mice (tottering mice); assay: Stress-induced dystonia in tottering mice in open field box (attack event number, dystonia score); format: in vivo; conditions: FIG. 1F; i.p. 30 min before test; Way100135 10 mg/kg, MDL100907 1 mg/kg, ondansetron 1 mg/kg; open field box 30 min
Experimental: The 7-8 weeks old CACNA1Atot/tot mice (Fletcher, Cell, 87 (4): 607-617, 1996, The Jackson Laboratory, Stock No: 000544) were selected kept and dealt complied with the regulation (protocol number KA2015-05) of Institutional Animal Care and Use Committee of the Korea Advanced Institute of Science and Technology (KAIST). The mice remained freely accessible to water and feed, and the light-dark cycle was 12/12 hours. Behavioral tests were performed 4 weeks after the viral transduction. […]
The drugs were dissolved in physiological saline and administrated […] to the tottering animal prepared by the Examples 2 and kept in the controlled environment of 12/12 hour light-dark cycle. […] The behavior test was performed 30 minutes after drug administration, and the experimental animals were acclimated in the home for 30 minutes and moved to an open field box, they were exposed to a stressed environment by leaving them in the open field box for 30 min, and the symptoms of dystonia were measured. The symptoms of dystonia and its severity were calculated using a 5-point scale dystonia score as follows: 0=normal behavior, 1=abnormal motor behavior, no myotonic posture, 2=minor dyskinesia, showing dystonia-like psture when disturbed, 3=moderate motor disability, frequent spontaneous myotonic posture, 4=severe motor disability, and persistent myotonic posture.

Structure (SMILES)	EMG cross correlation (TA and GS muscles) [1]	degree of relaxation of dystonia (number of dystonia events, dystonia score) [2]	Ki ([4]; 5-HT2A receptor)	other results
COc1cccc([C@H](O)C2CCN(CCc3ccc(F)cc3)CC2)c1OC [Volinanserin]	the correlation disappeared	showed no dystonia paralysis; also recorded: reduced symptoms of dystonia compared to Glemanserin	–	dystonia symptoms, dose-dependent effect ([2]; 0.1 mg/kg): dystonia symptoms were significantly suppressed; dystonia symptoms, dose-dependent effect ([2]; 2 mg/kg rather than 1 mg/kg): symptoms were slightly alleviated; increase in GCaMP6 fluorescence signal (ΔF/F) in cerebellum after moving to open field box [3]: reduced to the level when staying at the home
OCCOCCN1CCN(C(c2ccccc2)c2ccc(Cl)cc2)CC1 (stereo not shown) [Hydroxyzine]	–	–	–	IC50 [4]: 170 nM
CC(C)COc1ccc(CNC(=O)N(Cc2ccc(F)cc2)C2CCN(C)CC2)cc1 [Pimavanserin]	–	showed no dystonia paralysis; also recorded: reduced symptoms of dystonia compared to Glemanserin	–	–
COc1ccccc1N1CCN(CC(C(=O)NC(C)(C)C)c2ccccc2)CC1 (stereo not shown) [Way100135]	there is no difference	–	–	symptoms of dystonia (attack event number and muscle dysfunction index) [5]: did not reduce symptoms of dystonia at all
CC(CCN1CCN(c2ccc(F)cc2)CC1)NC(=O)c1cccnc1 (stereo not shown) [Niaprazine]	–	–	75 nM	pKi ([4]; 5-HT2A receptor): 7.61 ± 0.18
Cc1nccn1CC1CCc2c(c3ccccc3n2C)C1=O (stereo not shown) [ondansetron]	there is no difference	–	–	symptoms of dystonia (attack event number and muscle dysfunction index) [5]: did not reduce symptoms of dystonia at all
COc1ccc(NC(=O)Nc2ccc(F)cc2F)cc1-c1c(Br)cnn1C [Nelotanserin]	–	showed no dystonia paralysis	0.4 ± 0.07 nM	–
OC(c1ccccc1)C1CCN(CCc2ccccc2)CC1 (stereo not shown) [Glemanserin]	–	showed no significant effect	–	IC50 [4]: 6.5 ± 2 nM
COc1ccc(CC(=O)N(Cc2ccc(C)cc2)C2CCN(C)CC2)cc1 [AC-90179]	–	–	2.1 ± 0.2 nM	–
Cc1nc2sccn2c(=O)c1CCN1CCC(=C(c2ccc(F)cc2)c2ccc(F)cc2)CC1 [Ritanserin]	–	showed no dystonia paralysis	–	–
